Patent US20070015774A1, “Quinazoline derivatives useful in cancer treatment” (Schering Corporation, priority 2005, published 2007)
Where two headings read alike, the source gives them in different places.

Molecular target: GST-p53 DNA binding domain (aa 92-aa 312) (Homo sapiens, UniProt P04637)
Assay: Scintillation Proximity Assay (SPA), displacement of 3H STANDARD COMPOUND
Conditions: for remaining activity at 2 µg/mL: 1 h, 2 ug/mL of drug, read-out: SPA ASSAY % Residual T @ 2 ug/mL of drug (Average of); for % Residual T @ 2 ug/mL according to scintillation proximity assay (SPA): residual total binding of 3H STANDARD COMPOUND
Excerpt: Most of the oncogenic mutants of the tumor suppressor protein p53 lack sequence specific DNA binding activity at physiological temperature due to conformational changes in the DNA binding domain. Small molecules and peptide which bind to the p53 DNA binding domain stabilize the conformation and restore DNA binding activity to mutant p53 protein (Science 286, 2507-2510, 1999; PNAS, 99, 937-942, 2002). Using ^3H STANDARD COMPOUND (structure shown below; carbon atom with * is the atom labelled), [drawing 1366] a radio labeled small molecule which binds to p53, and the GST-p53 DNA binding domain (aa 92-aa 312), we have developed a quantitative screening assay. The assay is based on Scintillation Proximity Assay (SPA) technology, developed by Amersham Biosciences to measure molecular interactions. Briefly, the complex of GST-p53, ^3H STANDARD and Glutathione-SPA beads (Amersham Biosciences) are incubated with mixing for 1 hr at room temperature in the presence of the novel compounds to be screened. The signal is read on Microbeta. The compounds which have the ability to displace ^3H STANDARD COMPOUND are selected. Such molecules will stabilize the conformation and restore DNA binding activity to mutant p53 protein.
The above assay was used to determine the ability of the compounds of this invention to directly bind to p53 core and restore DNA binding activity to mutant p53 and the results for selected compounds have been given above in various tables.
A letter rating corresponding to % Residual total binding (T) @ 2 ug/mL of drug (i.e., compound of the present invention) from this assay have been assigned as follows: Compounds having % Residual T values of from 0% to less than 20% have been assigned the letter “A”. Compounds having % Residual T values of from 20% to less than 40% have been assigned the letter “B”. Compounds having % Residual T values of from 40% to less than 80% have been assigned the letter “C”. Compounds having % Residual T values of 80% or higher have been assigned the letter “D”. The exact % Residual T values @ 2 ug/mL for some illustrative compounds are shown below: […]

[1] = letter rating, number in brackets = number of determinations averaged
[2] = exact values, number in brackets = number of determinations averaged

GST-p53 DNA binding domain (aa 92-aa 312), sequence (P04637 92-312): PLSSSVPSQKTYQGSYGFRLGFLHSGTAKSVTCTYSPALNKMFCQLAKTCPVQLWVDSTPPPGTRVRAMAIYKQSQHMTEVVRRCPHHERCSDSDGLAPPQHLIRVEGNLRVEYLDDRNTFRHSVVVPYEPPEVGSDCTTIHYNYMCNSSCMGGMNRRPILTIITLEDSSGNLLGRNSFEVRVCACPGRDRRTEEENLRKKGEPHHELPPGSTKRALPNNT

Compound | remaining activity at 2 µg/mL [1] [%] | remaining activity at 2 µg/mL [2] [%] | also measured
CN(C)CCCNc1nc(CN(C)Cc2ccc(Oc3ccccc3)cc2)nc2ccccc12 [38-64] | 40 to 80 |  | 
CN(C)CCCNc1nc(CN(C)Cc2ccc(C#Cc3ccccc3)cc2)nc2ccccc12 [38-65] | ≥ 80 |  | 
CN(C)CCCNc1nc(CN(C)Cc2cccn2S(=O)(=O)c2ccccc2)nc2ccccc12 [38-66] | 40 to 80 |  | 
CN(C)CCCNc1nc(CN(C)Cc2ccccc2Sc2ccc(Cl)cc2)nc2ccccc12 [38-67] | 40 to 80 |  | 
CN(C)CCCNc1nc(CN(C)C2CCC2)nc2ccccc12 [38-68] | ≥ 80 |  | 
CN(C)CCCNc1nc(CN(C)C2CCCCC2)nc2ccccc12 [38-72] | 40 to 80 |  | 
CN(C)CCCNc1nc(CN(C)C2CCSC2)nc2ccccc12 (stereo not shown) [38-74] | 40 to 80 |  | 
CN(C)CCCNc1nc(CN(C)C2C[C@@H]3CC[C@H]2C3)nc2ccccc12 (stereo partly shown) [38-75] | ≥ 80 |  | 
CC1CCC(N(C)Cc2nc(NCCCN(C)C)c3ccccc3n2)CC1 (stereo not shown) [38-77] | 40 to 80 |  | 
CC(C)C1CCC(N(C)Cc2nc(NCCCN(C)C)c3ccccc3n2)CC1 (stereo not shown) [38-81] | 0 to 20 | 13.5 | 
CC(=O)N1CCC(N(C)Cc2nc(NCCCN(C)C)c3ccccc3n2)CC1 [38-82] | 40 to 80 |  | 
CN(C)CCCNc1nc(CN(C)C2CCC3CCCCC3C2)nc2ccccc12 (stereo not shown) [38-83] | 20 to 40 | 28.7 | 
CN(C)CCCNc1nc(CN(C)C2CCC(C(C)(C)C)CC2)nc2ccccc12 (stereo not shown) [38-84] | 0 to 20 | 7.8 | 
CN(C)CCCNc1nc(CN(C)C2CCC3(CC2)OCCO3)nc2ccccc12 [38-85] | 20 to 40 | 23 | 
CN(C)CCCNc1nc(CN(C)C2CCCC(C(F)(F)F)C2)nc2ccccc12 (stereo not shown) [38-86] | 40 to 80 |  | 
CN(C)CCCNc1nc(CN(C)C2CCC(C(F)(F)F)CC2)nc2ccccc12 (stereo not shown) [38-87] | 40 to 80 |  | 
CCC(C)(C)C1CCC(N(C)Cc2nc(NCCCN(C)C)c3ccccc3n2)CC1 (stereo not shown) [38-88] | 0 to 20 | 6.3 | 
CN(C)CCCNc1nc(CN(C)C2CCC(c3ccccc3)CC2)nc2ccccc12 (stereo not shown) [38-89] | 20 to 40 | 21 | 
CN(C)CCCNc1nc(CN(C)C2CCC(C#N)(c3ccccc3)CC2)nc2ccccc12 (stereo not shown) [38-90] | 0 to 20 | 5.5 | 
CN(C)CCCNc1nc(CN(C)C2CCN(C(=O)c3ccccc3)CC2)nc2ccccc12 [38-91] | 20 to 40 | 20.7 | 
CN(C)CCCNc1nc(CN(C)CC2CCCCC2)nc2ccccc12 [38-93] | 40 to 80 |  | 
COc1ccc(Cl)cc1NC(=O)N(C)Cc1nc(NCCCN(C)C)c2ccccc2n1 [41-30] |  |  | remaining activity at 2 µg/mL (letter rating, Examples 41 table): 40 to 80%
COc1ccc(/C=C/c2nc(NCCCN(C)C)c3ccccc3n2)cc1 [CP-31398, reference compound] |  | 61.3 | 
CN(Cc1ccccc1)Cc1nc2ccccc2c(=O)[nH]1 [PE-17] |  | 36.8 | 
CN(C)CCCNc1nc(CN(C)Cc2ccccc2)nc2ccccc12 [PE-19] |  | 22.2 | 
CN(Cc1ccccc1)Cc1nc2ccccc2c(=O)[nH]1 [Preparative Example 17, 2-[(benzylmethylamino)methyl]-3H-quinazolin-4-one] |  |  | % Residual T @ 2 ug/mL according to scintillation proximity assay (SPA): B (% Residual T values of from 20% to less than 40%)
CN(C)CCCNc1nc(CN(C)Cc2ccccc2)nc2ccccc12 [Preparative Example 19, N,N-dimethyl-N′-[2-{(N-methyl-N-benzylamino)methyl}quinazolin-4-yl]propane-1,3-diamine] |  |  | % Residual T @ 2 ug/mL according to scintillation proximity assay (SPA): B (% Residual T values of from 20% to less than 40%)
CNCc1nc(NCCCN(C)C)c2ccccc2n1 [Preparative Example 20, N,N-DIMETHYL-N′-[2-(METHYLAMINOMETHYL)QUINAZOLIN-4-YL]PROPANE-1,3-DIAMINE] |  |  | % Residual T @ 2 ug/mL according to scintillation proximity assay (SPA): C (% Residual T values of from 40% to less than 80%)
CN(C)CCC[C@H](N)C(N)=O [Preparative Example 42, 2(S)-(+)-AMINO-5-DIMETHYLAMINOPENTANAMIDE] |  |  | % Residual T @ 2 ug/mL according to scintillation proximity assay (SPA): D (% Residual T values of 80% or higher)
